The structures appear in SMILES notation.

The values that follow come from article PMC4229968, “The Inhibition of the Components from Shengmai Injection towards UDP-Glucuronosyltransferase” (Evidence-based Complementary and Alternative Medicine : eCAM, 2014).

What all share (type): in vitro ADME
Series [1] concerns the target T1, UGT1A3 (Homo sapiens, UniProt P35503).
T1 construct: purchased BD Gentest Corp. (Woburn, MA, USA); host or cells: baculovirus-infected insect cells
T1 sequence (P35503 29-534): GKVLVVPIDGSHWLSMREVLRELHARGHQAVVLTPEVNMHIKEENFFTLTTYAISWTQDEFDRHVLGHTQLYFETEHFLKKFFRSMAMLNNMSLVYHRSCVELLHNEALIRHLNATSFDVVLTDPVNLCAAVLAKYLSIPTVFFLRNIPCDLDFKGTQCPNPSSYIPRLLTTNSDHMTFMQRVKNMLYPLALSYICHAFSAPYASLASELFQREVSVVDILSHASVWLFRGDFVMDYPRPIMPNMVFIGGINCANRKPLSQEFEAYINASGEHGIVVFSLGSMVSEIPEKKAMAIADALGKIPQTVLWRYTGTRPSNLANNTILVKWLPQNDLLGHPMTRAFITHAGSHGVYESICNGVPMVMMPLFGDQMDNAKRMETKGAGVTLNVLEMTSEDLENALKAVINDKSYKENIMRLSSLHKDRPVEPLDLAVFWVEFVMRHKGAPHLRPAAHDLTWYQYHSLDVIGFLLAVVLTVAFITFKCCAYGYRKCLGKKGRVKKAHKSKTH
The series is described as follows: Recombinant UGT1A3-catalyzed 4-MU glucuronidation inhibition. Particulars: pH 7.4, probe 4-methylumbelliferone (4-MU), UGT1A3, 100 μM of compound, 4-MU substrate, read-out: residual activity. The source says: (§1) 4-Methylumbelliferone (4-MU), 4-methylumbelliferone-β-D-glucuronide (4-MUG), Tris-HCl, 7-hydroxycoumarin, and uridine-5′-diphosphoglucuronic acid (UDPGA) (trisodium salt) were purchased from Sigma-Aldrich (St. Louis, MO). Recombinant human UGT isoforms (UGT1A1, UGT1A3, UGT1A4, UGT1A6, UGT1A7, UGT1A8, UGT1A9, UGT1A10, UGT2B4, UGT2B7, and UGT2B15) expressed in baculovirus-infected insect cells were obtained from BD Gentest Corp. (Woburn, MA, USA). Ophiopogonin D (OD), ophiopogonin D′ (OD′), methylophiopogonanone A (MA), methylophiopogonanone B (MB), and ruscorectal (RU) were purchased from Sichuan Weikeqi Biotechnology Company (Chengdu, Sichuan, China). The purity of these compounds was above 95%. All other reagents were of HPLC grade or of the highest grade commercially available.
(§2) 4-MU, the nonspecific probe substrate for all the UGT isoforms except UGT1A4, was used in the present study to initially screen the inhibition potential of maidong's components towards UGT isoforms as previously reported. In brief, the incubation system (total volume = 200 μL) consisted of recombinant UGTs, 5 mM UDPGA, 5 mM MgCl2, 50 mM Tris-HCl (pH = 7.4), and 4-MU in the absence or presence of different concentrations of maidong's components. The compounds were dissolved in DMSO, and the final concentration of DMSO was below 0.5% (v/v). The used incubation time and protein concentration were previously determined to ensure the reaction rate within the linear range. The 4-MU concentration was equal to known K m or S 50 values for each UGT isoform. After 5 min preincubation at 37°C, the incubation reaction was initiated via adding UDPGA to the mixture system. The reactions were quenched by adding 100 μL acetonitrile with 7-hydroxycoumarin (100 μM) as internal standard. Centrifuged at 20000 ×g for 10 min, an aliquot of supernatant was transferred to an autoinjector vial for HPLC analysis. The HPLC system (Shimadzu, Kyoto, Japan) contained a SCL-10A system controller, two LC-10AT pumps, a SIL-10A autoinjector, and a SPD-10AVP UV detector. Chromatographic separation was carried out using a C18 column (4.6 × 200 mm, 5 μm, Kromasil) at a flow rate of 1 mL/min and UV detector at 316 nm. The mobile phase consisted of acetonitrile (A) and H2O containing 0.5% (v/v) formic acid (B). The following gradient condition was used: 0–15 min, 95–40% B; 15–20 min, 10% B; 20–30 min, 95% B.

The target of series [2] is T2, UGT1A10 (Homo sapiens, UniProt Q9HAW8).
T2 construct: purchased BD Gentest Corp. (Woburn, MA, USA); host or cells: baculovirus-infected insect cells
T2 sequence (Q9HAW8 26-530): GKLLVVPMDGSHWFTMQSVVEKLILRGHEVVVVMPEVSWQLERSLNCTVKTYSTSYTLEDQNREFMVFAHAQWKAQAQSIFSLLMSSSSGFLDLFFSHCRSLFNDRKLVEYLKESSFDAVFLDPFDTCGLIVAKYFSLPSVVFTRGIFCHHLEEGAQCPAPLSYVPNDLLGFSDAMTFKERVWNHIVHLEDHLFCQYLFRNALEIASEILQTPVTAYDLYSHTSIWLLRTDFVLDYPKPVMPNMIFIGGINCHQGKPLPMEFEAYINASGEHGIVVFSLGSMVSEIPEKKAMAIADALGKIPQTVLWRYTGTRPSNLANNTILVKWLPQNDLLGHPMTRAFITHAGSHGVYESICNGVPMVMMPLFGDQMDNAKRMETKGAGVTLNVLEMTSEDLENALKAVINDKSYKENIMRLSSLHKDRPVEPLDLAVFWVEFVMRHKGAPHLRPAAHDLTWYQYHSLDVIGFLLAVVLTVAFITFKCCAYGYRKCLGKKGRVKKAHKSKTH
Description: Recombinant UGT1A10-catalyzed 4-MU glucuronidation inhibition. Particulars: for activity at 100 µM: UGT1A10, 100 μM of compound, 4-MU substrate, read-out: residual activity.
From the text: as §1, §2
To determine the inhibition kinetic type and parameters (K i), the reaction velocity (V) was determined at multiple concentrations of maidong's components and 4-MU (or TFP). Dixon plot and Lineweaver-Burk plot were used to fit the data. The inhibition kinetic type was evaluated through determining the intersection point in the Dixon and Lineweaver-Burk plots.
K m value is the substrate concentration in which the velocity reached half of the maximum velocity (V max) of the reaction. K i value is the inhibition constant.

Series [3] has as its target T3, UGT1A7 (Homo sapiens, UniProt Q9HAW7).
T3 construct: purchased BD Gentest Corp. (Woburn, MA, USA); host or cells: baculovirus-infected insect cells
T3 sequence (Q9HAW7 26-530): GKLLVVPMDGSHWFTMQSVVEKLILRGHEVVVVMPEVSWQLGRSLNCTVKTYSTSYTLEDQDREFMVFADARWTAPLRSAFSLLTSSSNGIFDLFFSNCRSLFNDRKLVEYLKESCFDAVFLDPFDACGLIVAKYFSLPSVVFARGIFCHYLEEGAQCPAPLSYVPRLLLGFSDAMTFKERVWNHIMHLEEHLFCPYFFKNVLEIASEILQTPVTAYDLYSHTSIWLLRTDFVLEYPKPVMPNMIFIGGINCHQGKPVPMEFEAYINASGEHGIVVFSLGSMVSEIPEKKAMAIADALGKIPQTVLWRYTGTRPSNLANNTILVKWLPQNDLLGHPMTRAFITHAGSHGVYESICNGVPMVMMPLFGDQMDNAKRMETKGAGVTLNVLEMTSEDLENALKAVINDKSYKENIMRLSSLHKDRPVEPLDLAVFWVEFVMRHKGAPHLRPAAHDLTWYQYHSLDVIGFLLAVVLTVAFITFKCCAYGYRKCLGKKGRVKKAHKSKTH
The series is described as follows: Recombinant UGT1A7-catalyzed 4-MU glucuronidation inhibition. Particulars: pH 7.4, probe 4-methylumbelliferone (4-MU), UGT1A7, 100 μM of compound, 4-MU substrate, read-out: residual activity.
From the text: as §1, §2

[4] abbreviates: human, pH 7.4, probe 4-methylumbelliferone (4-MU).

Take `Cc1c(O)c(C)c2c(c1O)C(=O)[C@H](Cc1ccc3c(c1)OCO3)CO2` [MA, methylophiopogonanone A]: the activity at 100 µM in series [1] turned out to be 35.5 ± 6.1%; in series [2] (setting [4]), 70 ± 9.3%; in series [3], 57.5 ± 10.8%.

Regarding `COc1ccc(C[C@@H]2COc3c(C)c(O)c(C)c(O)c3C2=O)cc1` [MB, methylophiopogonanone B], the values for the activity at 100 µM in series [1], in series [2] (setting [4]) and in series [3] were 84.2 ± 22.8%, 96.9 ± 7.3% and 83.4 ± 5.9%, respectively.

As to `C[C@@H]1CC[C@@]2(OC1)O[C@H]1C[C@H]3[C@@H]4CC=C5C[C@@H](O)C[C@@H](O[C@@H]6O[C@H](C)[C@H](O)[C@H](O[C@@H]7OC[C@@H](O)[C@H](O)[C@H]7O)[C@H]6O[C@@H]6O[C@@H](C)[C@H](O)[C@@H](O)[C@H]6O)[C@]5(C)[C@H]4CC[C@]3(C)[C@H]1[C@@H]2C` [OD, ophiopogonin D], the values for the activity at 100 µM in series [1], in series [2] (setting [4]) and in series [3] were 40.7 ± 0.3%, 26.5 ± 1.5% and 144 ± 8.7%, respectively.

In the case of `C[C@@H]1CC[C@@]2(OC1)O[C@H]1C[C@H]3[C@@H]4CC=C5C[C@@H](O[C@@H]6O[C@H](CO)[C@@H](O)[C@H](O[C@@H]7OC[C@@H](O)[C@H](O)[C@H]7O)[C@H]6O[C@@H]6O[C@@H](C)[C@H](O)[C@@H](O)[C@H]6O)CC[C@]5(C)[C@H]4CC[C@]3(C)[C@H]1[C@@H]2C` [OD′, ophiopogonin D′], the results for the activity at 100 µM in series [1], in series [2] (setting [4]) and in series [3] were 36.5 ± 2.5%, 19.8 ± 3.2% and 122 ± 1.3%, respectively. The Ki (commonly a measure of affinity in units of concentration, obtained from inhibition or displacement) in series [2] (UGT1A10-catalyzed 4-MU glucuronidation, read-out: inhibition kinetic parameter (Ki)) was determined as 9 µM. For the same compound, in series [2] (UGT1A10, Dixon and Lineweaver-Burk plots), the inhibition type entry is reported as “noncompetitively inhibited”. Also, the inhibition (usually the change of the read-out against control, counted positive when it falls) at 100 µM in series [2] (human, pH 7.4, probe 4-methylumbelliferone (4-MU), UGT1A10, at 100 μM, read-out: inhibition percent) turned out to be 80.2%.

Regarding `CC1CCC2(OC1)OC1CC3C4CC=C5CC(O)CC(O)C5(C)C4CCC3(C)C1C2C` (stereo not drawn) [RU, ruscorectal], the activity at 100 µM amounted to 37.2 ± 18.2% in series [1], 82 ± 5.2% in series [2] (setting [4]) and 52.4 ± 7.4% in series [3].
